From paper PMC10732398 (PLOS Pathogens, 2023) come the findings set out here.

Test [1] concerns ⍺4β7 on RPMI8866 cells. As to the kind of experiment: Flow cytometry: ligand staining of ⍺4β7-expressing cells in buffers with different divalent cations. In kind it is binding, human. Conditions: absence of divalent cations (0.1 mM EDTA). The text has this:
Fig 1 Binding of soluble CD4 to ⍺4β7 on CD4^+ T cells. (A) Schematic of D1D2-Ig⍺tp. (B) Flow-cytometry histogram of PE-conjugated D1D2-Ig⍺tp staining of CD4^+ T cells alone (blue) or in the presence of either the anti ⍺4 mAb 2B4 (green) or an irrelevant mAb (black-dashed). Cells stained with PE-conjugated MicA-Ig⍺tp (red), along with unstained cells (grey) are included. X-axis indicates geometric mean fluorescence intensity (gMFI). (C) 293T cells untransfected or co-transfected with ⍺4 and β7 expression vectors stained with either PE-D1D2-Ig⍺tp or PE-MAdCAM-Ig in the absence or presence of the ⍺4 antagonist FG. Y-axis indicates gMFI. (D) CD4^+ T cells stained with anti CD45RO (x-axis) anti β7 (y-axis) (left), or with anti CD45RO (x-axis) and D1D2-Ig⍺tp (y-axis) (right). % cells in each quadrant, as indicated. (E) CD4^+ T cells stained as in B, with lower MW forms of oligomerized D1D2-Ig⍺tp. Left Y-axis indicates gMFI (bars), right Y-axis indicates relative MW (kDa) (•). […]
Cells were stained with fluoresceine conjugated mAbs or recombinant proteins using standard procedures preceded by Fc receptor blocking with human IgG. […] Data were acquired using a FACSCanto II (BD Biosciences) and analyzed with FlowJo software (BD Biosciences). […]
For orientation: Flow cytometry measures light scatter and fluorescence of single cells or particles in a stream.

Test [2] deals with ⍺4β7 on RPMI8866 cells. Nature of the test: Flow cytometry: cross-inhibition of MAdCAM-Ig, VCAM-Ig and D1D2-Ig⍺tp binding to RPMI8866 cells. Also on record: species or system human. The settings on record: increasing concentrations of unlabeled inhibitor, Fig 2C, 2D. The procedure:
Cis interactions between various integrins and leukocyte receptors are known to regulate immune cell functions. To determine whether CD4 inhibits MAdCAM-1 or VCAM-1 binding to ⍺4β7 we preincubated RPMI8866 cells with labelled MAdCAM-Ig or VCAM-Ig in the presence of increasing concentrations of unlabeled D1D2-Ig⍺tp. […] This implies that MAdCAM-1 and VCAM-1, acting in trans, may interfere with CD4-⍺4β7 interactions. What remains unknown is whether interactions between ⍺4β7 and CD4 impact CD4 migration into the TCR and subsequent interactions with MHC II (Fig 2E).
Fig 2 Cross-inhibition of MAdCAM-Ig, VCAM-Ig and D1D2-Ig⍺tp binding to ⍺4β7. Flow cytometric analysis of (A) PE -conjugated MAdCAM-Ig or (B) PE -conjugated VCAM-Ig binding to RPMI8866 cells pre-incubated with increasing concentrations of unlabeled D1D2-Igαtp. Cell preincubated with increasing concentrations of (C) unlabeled MAdCAM-Ig or (D) VCAM-Ig followed by PE -conjugated D1D2-Ig⍺tp. Y-axis indicates gMFI. Dashed line indicates gMFI in the absence of any inhibitor.
Cells were stained with fluoresceine conjugated mAbs or recombinant proteins using standard procedures preceded by Fc receptor blocking with human IgG. Buffers used were 10 mM HEPES 150 mM NaCl (HBS Buffer) with 100 μM CaCl2. […] Data were acquired using a FACSCanto II (BD Biosciences) and analyzed with FlowJo software (BD Biosciences). […]

In test [3] the test system is ⍺4β7 on primary CD8^+ T cells. As to the kind of experiment: Flow cytometry: FAM-conjugated pCD4^165-178 binding to RA-treated primary CD8^+ T cells. Also on record: species or system human. The settings on record: FAM-Ttds-labelled peptide 1.25 μg/200,000 cells in 100 μl; presence or absence of Mn^++. An excerpt:
To further investigate the interaction between pCD4^165-178 and ⍺4β7 we attached a fluorescein dye to its amino terminus via a trioxatridecan-succinamic acid (Ttds) linker (Fig 5A). A scrambled pCD4^165-178 was employed as a control. […] FIB504 and vedolizumab inhibited binding by ~50%. This inhibition pattern resembles the one we obtained when inhibiting D1D2-Ig⍺tp with the same antagonists (Fig 3). We conclude that the CD4 D2 G β-strand binds directly to the headpiece region of ⍺4β7 in a cation dependent manner. Support for this conclusion, in the form of site directed mutagenesis within the D2 G β-strand is provided below.
Fig 5 Direct binding of pCD4^165-178 to ⍺4β7 on primary T cells. (A) Sequence of FAM -conjugated pCD4^165-178 and a scrambled derivative (FAM-scr pCD4^165-178). (B) Flow-cytometry derived histogram of pCD4^165-178 binding to RA -cultured CD8^+ T cells. pCD4^165-178 in the presence (green), or absence of Mn^++(black). Unstained cells are shown (grey). (C) Binding of pCD4^165-178 and its scrambled derivative to CD8^+ T cells in the presence of MnCl2 as in panel B, and in the presence of ⍺4 and ⍺4β7 antagonists, as indicated. Y-axis indicates % cells bound. Error bars represent standard error from 3 independent experiments.
Cells were stained with fluoresceine conjugated mAbs or recombinant proteins using standard procedures preceded by Fc receptor blocking with human IgG. Buffers used were 10 mM HEPES 150 mM NaCl (HBS Buffer) with 100 μM CaCl2. 1 mM MnCl2 was also included, unless otherwise specified. Buffer without divalent cations included 0.1 mM EDTA. Unlabeled mAb or protein inhibitors were preincubated with cells or proteins at a 5X molar excess for 15 min on ice. FAM labeled peptides were used at 1.25 μg/ 200,000 cells in a 100 μl volume. Data were acquired using a FACSCanto II (BD Biosciences) and analyzed with FlowJo software (BD Biosciences). Plotted MFI values represent absolute values.

Turning to “MAdCAM-Ig: recombinant MAdCAM-1 Ig fusion, R&D Systems [reference compound]”, the “binding to ⍺4β7 (in words)” value in test [1] was “failed to bind”. The “inhibition of PE-conjugated D1D2-Ig⍺tp binding to ⍺4β7 (in words)” value in test [2] was “inhibited D1D2-Ig⍺tp binding to ⍺4β7 in a dose dependent manner”.

Take “QKKVEFKIDIVVLA [CD4 P42, linear CD4 D2 peptide, residues 165-178, G β-strand]”: in test [3], the “binding of FAM-labelled peptide to RA-treated CD8^+ T cells (in words)” value is reported as “reacted strongly in the presence, but not in the absence of Mn^++”.
